Reference: patent EP2815749A1, “Solid form of 4-amino-2-(2,6-dioxopiperidine-3-yl)isoindoline-1,3-dione having specified X-ray diffraction pattern” (IP Gesellschaft für Management mbH, priority 2013, dated 2014)
Blank lines part the entries; values can stand above or below the compound they belong to.

Columns and labels:
AF508-CFTR = target: T1, AF508-CFTR (Homo sapiens, UniProt P13569, DEL508-508); assay: Membrane potential optical assay for potentiation (FLIPR III); format: cell-based; details: relative efficacy
T1 construct: expressed in transfected cells
Text: SINGLE CRYSTAL […] OF FORM T: Single crystal analysis was done on a crystal of Form T ({drug7r}) as described above. […] The driving force for the response is the creation of a chloride ion gradient in conjunction with channel activation by a single liquid addition step after the cells have previously been treated with compounds and subsequently loaded with a voltage sensing dye. Identification of Potentiator Compounds: To identify potentiators of AF508-CFTR, a double-addition HTS assay format was developed. […] The driving force for the response is a CI" ion gradient in conjunction with channel activation with forskolin in a single liquid addition step using a fluorescent plate reader such as FLIPR III after the cells have previously been treated with potentiator compounds (or DMSO vehicle control) and subsequently loaded with a redistribution dye. […] HBE grown on Costar® Snapwell™ cell culture inserts were mounted in an Using chamber (Physiologic Instruments, Inc., San Diego, CA), and the transepithelial resistance and short-circuit current in the presence of a basolateral to apical CI" gradient (Isc) were measured using a voltage-clamp system (Department of Bioengineering, University of Iowa, IA). […]

[1] = Polymorph screening: crash cooling; format: physicochemical
Description: (§1) Polymorph screening: A polymorph screen was conducted in the methylethyl ketone (MEK)/ water solvent systems, as well as in the acetonitrile (ACN), ACN/water and isopropyl acetate solvent systems. Polymorph screening techniques included crash cooling, solvent evaporation, antisolvent addition, and slurry experiments. Slurry experiments were performed on an IKA RCT hot plate with magnetic stirring set to 710 rpm. The temperature was controlled with an IKA ETS-D5 thermocouple. Solvent volumes were measured and transferred with Gibson Pipetteman volumetric pipettes. New forms that were identified as solvates were subjected to desolvation under two potential conditions: (1) drying in a vacuum oven at 40°C and (2) sitting undisturbed under ambient conditions in a fume hood. Physical characterization of all forms proceeded by X-ray powder diffraction (XRPD) and thermogravimetric analysis (TGA).
Experiment 1: Crash Cooling: A saturated solution of Compound (VII), Form XX was made by preparing 1 mL slurries using acetonitrile (ACN), ACN- water (75:25), methylethyl ketone (MEK), or MEK-water (99:1, 90:10, or 80:20) in vials. After 24 hours in capped HPLC vials, the slurries were then filtered to remove residual solids. Approximately 2 additional milligrams of Compound (VII) was added to each vial containing a saturated solution. Next, the vials were heated to 70°C with stirring until all of the material was completely dissolved. Immediately after, the samples were submerged into an ice bath. The product, which precipitated as a white powder within 1 minute, was isolated by filtration and analyzed by XRPD and TGA.

[2] = Polymorph screening: solvent evaporation; format: physicochemical; details: form obtained
Description: as §1
A saturated solution was made by slurrying Compound (VII), Form XX in 5 mL of solvent (ACN, isopropyl acetate (IP Ac), or MEK) or 1 mL of solvent for the MEK/Water solvent system. After 24 hours, the residual solids were removed by filtration. The saturated solutions were then subjected to rapid solvent evaporation by blowing nitrogen (N2) gas over the samples with a Pierce Model 18780 Reacti-Vap evaporating unit for four hours. The product precipitated as a white powder and the form was analyzed by XRPD and TGA.

[3] = Polymorph screening: antisolvent addition; format: physicochemical; details: form obtained
Description: as §1
Experiment 3: Antisolvent Addition: A saturated solution of Compound (VII), Form XX was made by slurrying either in 5 mL of solvent in the ACN, IP Ac, and MEK solvent systems, 2 mL total solvent for IP Ac/water, or 1 mL total solvent for the MEK/water solvent systems. After 24 hours, the residual solids were removed by filtration 20 mL of antisolvent was then quickly added to the saturated solutions to induce precipitation. Hexane was used as the antisolvent in the MEK and IP Ac solvent systems, and MTBE was used as the antisolvent in the ACN solvent systems, as a consequence of the immiscibility between ACN and hexane. The product precipitated as a white powder and the form was analyzed by XRPD and TGA. Table 9.

[4] = Hygroscopicity of pomalidomide Form A (DVS); format: physicochemical
Description: Pomalidomide Polymorph Preparations: A weighed sample of pomalidomide (about 100 mg) was treated with 2 mL of a test solvent. The solvents used were either reagent or HPLC grade. The resulting mixture was agitated for at least 24 hours at 25°C. When all of the solids were dissolved by visual inspection, the estimated solubilities were calculated. The solubility was estimated from these experiments based on the total volume of solvent used to give a solution. The actual solubility may be greater than those calculated due to the use of a large amount of solvent or to a slow rate of dissolution. […] A known volume of filtrate was evaporated to dryness and the weight of the residue was measured. Equilibration and evaporation experiments were carried out by adding an excess of pomalidomide to 4 mL of a test solvent. The resulting mixture was agitated for at least 24 hours at 25°C and 50°C separately. […] All of the samples generated as described in the polymorph preparation study were analyzed by XRPD. […] Diffracted radiation was detected by peitier-cooled Si(Li) solid state detector. […] Approximately 2-5 mg of sample was placed into a DSC pan and the weight was accurately recorded. […] Hygroscopicity was determined on a Surface Measurement Systems DVS. Typically a sample size of 10-50 mg was loaded into the DVS instrument sample pan and the sample was analyzed on a DVS automated sorption analyzer at 25°C. […]

[5] = Stability of pomalidomide Form A; format: physicochemical
Description: (§2) Hygroscopicity: Dynamic vapor sorption (DVS) analysis was carried out for two preparations of Form A using Surface Measurement Systems DVS. Representative DVS isotherm plots are presented in Figure 23 of WO2013/126326 and Figure 24 of WO2013/126326. In one study, the moisture uptake was less than about 0.14 % (wv'w) up to 95% relative humidity, indicative that pomalidomide Form A is not hygroscopic. […] At the end of desorption, the sample lost all of the weight it gained during the process of moisture sorption. […] The X-ray powder diffractograms are shown in Figure 25 and Figure 26 of WO2013/126326. […] The physical properties of the exposed form A were unchanged as compared to at the start of the study. Form A also appeared to be stable in acetone, acetonitrile, ethanol, ethyl acetate, methyl ethyl ketone, THF, toluene, ethanoi-water (1 : 1) or water at 40°C for at least 4 weeks. Compression Test: A compression test for Form A was carried out by applying 2000-psi pressure to the sample for 1 minute and then analyzing the sample by XRPD. […] Particle Size Distribution: In some embodiments, Form A was prepared as a white, irregular plate crystalline with a particle size D90 < 12 ? . Particle size distribution was determined for various lots of pomalidomide. Table 15: Particle Size Data for Pomalidomide Lots

[6] = Compression test of pomalidomide Form A; format: physicochemical; details: 2000-psi pressure for 1 minute
Description: as §2

[7] = Solvent System Acetonitrile/H2O

T1 sequence (P13569 with tags, fused parts or gaps DEL508-508): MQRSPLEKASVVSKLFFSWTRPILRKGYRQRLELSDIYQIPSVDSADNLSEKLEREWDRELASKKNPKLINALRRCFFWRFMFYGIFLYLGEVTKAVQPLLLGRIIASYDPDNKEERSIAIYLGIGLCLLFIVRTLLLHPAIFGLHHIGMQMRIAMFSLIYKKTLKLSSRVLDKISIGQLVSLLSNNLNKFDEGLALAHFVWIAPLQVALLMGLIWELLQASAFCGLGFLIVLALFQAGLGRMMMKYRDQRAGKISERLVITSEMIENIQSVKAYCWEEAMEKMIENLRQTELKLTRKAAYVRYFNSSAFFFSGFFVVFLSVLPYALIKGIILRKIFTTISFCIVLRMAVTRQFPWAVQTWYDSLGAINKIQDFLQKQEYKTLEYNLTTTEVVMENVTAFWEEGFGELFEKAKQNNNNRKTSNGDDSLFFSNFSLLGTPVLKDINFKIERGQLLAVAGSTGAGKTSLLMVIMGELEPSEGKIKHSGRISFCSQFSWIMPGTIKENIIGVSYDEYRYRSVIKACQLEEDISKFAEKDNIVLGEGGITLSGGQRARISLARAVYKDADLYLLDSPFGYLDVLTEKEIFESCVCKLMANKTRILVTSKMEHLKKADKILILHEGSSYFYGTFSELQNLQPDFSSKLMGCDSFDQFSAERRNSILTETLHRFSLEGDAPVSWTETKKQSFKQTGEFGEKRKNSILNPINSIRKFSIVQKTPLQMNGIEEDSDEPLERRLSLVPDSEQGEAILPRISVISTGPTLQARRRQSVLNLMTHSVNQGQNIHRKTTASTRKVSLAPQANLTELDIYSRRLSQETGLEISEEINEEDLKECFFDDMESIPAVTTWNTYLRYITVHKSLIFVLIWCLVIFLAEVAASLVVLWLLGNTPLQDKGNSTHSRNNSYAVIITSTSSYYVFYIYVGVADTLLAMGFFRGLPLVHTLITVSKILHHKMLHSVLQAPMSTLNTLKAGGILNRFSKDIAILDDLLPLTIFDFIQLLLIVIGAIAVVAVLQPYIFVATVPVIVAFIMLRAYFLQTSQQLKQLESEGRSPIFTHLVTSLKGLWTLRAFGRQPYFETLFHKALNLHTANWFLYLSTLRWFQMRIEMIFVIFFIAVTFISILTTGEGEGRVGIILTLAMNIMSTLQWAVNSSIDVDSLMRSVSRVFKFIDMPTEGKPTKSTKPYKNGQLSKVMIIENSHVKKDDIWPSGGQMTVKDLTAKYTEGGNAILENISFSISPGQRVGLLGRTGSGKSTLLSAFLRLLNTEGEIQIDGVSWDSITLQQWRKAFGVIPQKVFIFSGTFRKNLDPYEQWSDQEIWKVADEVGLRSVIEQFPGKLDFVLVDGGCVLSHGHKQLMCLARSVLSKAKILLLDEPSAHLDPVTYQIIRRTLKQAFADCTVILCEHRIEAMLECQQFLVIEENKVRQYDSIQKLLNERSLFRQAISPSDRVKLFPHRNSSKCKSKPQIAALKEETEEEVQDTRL

% Activity (AF508-CFTR): ++ ("++" means between 25% to 100%)
Solvate Polymorph ([1]; Solvent System Acetonitrile): Form D
Solvate Polymorph [1, 7]: Form D
Solvate Polymorph ([1]; Solvent System MEK): Form E
Solvate Polymorph ([1]; Solvent System MEK/H2O (80:20)): Form E
Solvate Polymorph ([1]; Solvent System MEK/H2O (90:10)): Form E
Solvate Polymorph ([1]; Solvent System MEK/H2O (99:1)): Form E
Solvate Polymorph ([1]; Solvent System Water): not soluble
Solvent Evaporation [2, 7]: Form F
Solvent Evaporation ([2]; Solvent System IPAc): Form G Semi-crystalline
Solvent Evaporation ([2]; Solvent System IPAc/H2O): Form H
Solvent Evaporation ([2]; Solvent System MEK): Form I
Solvent Evaporation ([2]; Solvent System MEK/H2O (80:20)): Form E
Solvent Evaporation ([2]; Solvent System MEK/H2O (90:10)): Form E
Solvent Evaporation ([2]; Solvent System MEK/H2O (99:1)): Form J
Solvent Evaporation ([2]; Solvent System Water): not soluble
Antisolvent Addition ([3]; Solvent System IPAc/H2O): Form T
Antisolvent Addition ([3]; Solvent System MEK): Form K
Antisolvent Addition ([3]; Solvent System MEK/H2O (80:20)): Form K
Antisolvent Addition ([3]; Solvent System MEK/H2O (90:10)): Form K
Antisolvent Addition ([3]; Solvent System MEK/H2O (99:1)): Form K
Antisolvent Addition ([3]; Solvent System Water): not soluble
SMILES: CC(C)(C)c1cc(C(C)(C)C)c(NC(=O)c2c[nH]c3ccccc3c2=O)cc1O [Compound (VII), N-[2,4-bis(1,1-dimethylethyl)-5-hydroxyphenyl]-1,4-dihydro-4-oxoquinoline-3-carboxamide]

SMILES: Nc1cccc2c1C(=O)N(C1CCC(=O)NC1=O)C2=O (stereo not drawn) [pomalidomide Form A, 4-amino-2-(2,6-dioxopiperidine-3-yl)isoindoline-1,3-dione]
mass change over the dry mass ([4]; relative humidity increased from 0 to 95%, another study): less than 0.11%
moisture uptake ([4]; up to 95% relative humidity, one study): less than 0.14 % (wv'w)
physical properties after exposure ([5]; 40°C/75% RH environment for four weeks): unchanged
time stable in solvent ([5]; acetone, acetonitrile, ethanol, ethyl acetate, methyl ethyl ketone, THF, toluene, ethanol-water (1:1) or water at 40°C): at least 4 weeks
XRPD pattern after compression [6]: unchanged
